This assay has as its system ThsS. To be noted: read-out: K1/2; whole E. coli cells, M9 glycerol, 37 °C, agonist, added as Na2S2O3, 200 μM IPTG, 20 ng/mL aTc; wild type taken as the upper end of the printed range.

Here are results for 1 compound from article PMC5897336, “Phosphatase activity tunes two-component system sensor detection threshold” (Nature Communications, 2018).

Regarding `O=S(=O)(O)S` [thiosulfate], the EC50 stood at 192 µM.
